Data taken from patent publication US9108930B2, “N1- and N2-carbamoyl-1,2,3-triazole serine hydrolase inhibitors and methods” (The Scripps Research Institute, priority 2011, dated 2015).

Experiments:
[1] = test system: serine hydrolases in mouse brain proteome; assay: Selectivity profile by competitive ABPP (mouse brain proteome), DAGL series; type: biochemical
DAGLB [2] = target: T1, DAGLB (Mus musculus, UniProt Q91WC9); assay: In situ inhibition in Neuro2A cells, competitive ABPP with HT-01; type: cell-based; parameters: from tissue; host or cells: thioglycolate-elicited peritoneal macrophages of treated mice; conditions: 4 hours
T1 sequence (Q91WC9 1-669): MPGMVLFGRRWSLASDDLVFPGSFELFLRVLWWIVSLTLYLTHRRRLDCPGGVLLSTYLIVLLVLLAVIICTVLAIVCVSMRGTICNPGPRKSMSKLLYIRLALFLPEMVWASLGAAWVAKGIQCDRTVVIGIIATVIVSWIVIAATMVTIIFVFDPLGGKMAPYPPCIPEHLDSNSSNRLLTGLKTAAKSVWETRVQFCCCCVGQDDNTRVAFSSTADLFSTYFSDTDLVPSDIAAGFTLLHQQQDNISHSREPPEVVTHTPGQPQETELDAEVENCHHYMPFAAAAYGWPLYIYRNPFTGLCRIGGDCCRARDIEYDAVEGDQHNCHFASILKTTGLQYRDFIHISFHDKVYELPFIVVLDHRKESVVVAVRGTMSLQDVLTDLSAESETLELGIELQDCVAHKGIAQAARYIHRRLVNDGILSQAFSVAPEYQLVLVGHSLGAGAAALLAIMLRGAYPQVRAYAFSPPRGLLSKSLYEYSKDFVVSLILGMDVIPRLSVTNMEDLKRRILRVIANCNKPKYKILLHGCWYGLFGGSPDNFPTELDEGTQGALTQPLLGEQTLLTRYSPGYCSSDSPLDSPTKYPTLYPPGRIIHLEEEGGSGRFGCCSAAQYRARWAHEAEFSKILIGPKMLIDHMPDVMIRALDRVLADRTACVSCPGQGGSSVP
Experimental: For gel-based competitive ABPP studies, proteomes from cells treated in situ with inhibitor for 4 h at 37° C. at the indicated concentrations (n=3) were labeled with HT-01 (1 μM) for 30 min at 37° C. After quenching, SDS-PAGE, and in-gel visualization, the percentage of enzyme activity remaining was determined by measuring the integrated optical intensity of the bands using IMAGER® software. For LC-MS substrate assays, the percentage of enzyme activity remaining was determined by comparing the specific activity (amount of 2-AG formed per min per mg of proteome) of inhibitor with DMSO-treated samples. The IC50 values were determined from a dose-response curve generated using GraphPad PRISM® software.

DAGLB [3] = target: T1, DAGLB; assay: Gel-based ABPP assay against recombinant DAGLB (HEK293T-DAGLB lysates); type: biochemical; parameters: Full-length cDNAs encoding serine hydrolases were purchased from Open Biosystems; V5; host or cells: HEK293T; conditions: recombinant
APEH = target: T2, APEH (Mus musculus, UniProt Q8R146); assay: In situ inhibition in cultured mouse T-cells, gel-based competitive ABPP; type: cell-based; conditions: 4 h at 37° C.; read-out: potency of APEH inactivation in cultured T-cells
T2 sequence (Q8R146 1-732): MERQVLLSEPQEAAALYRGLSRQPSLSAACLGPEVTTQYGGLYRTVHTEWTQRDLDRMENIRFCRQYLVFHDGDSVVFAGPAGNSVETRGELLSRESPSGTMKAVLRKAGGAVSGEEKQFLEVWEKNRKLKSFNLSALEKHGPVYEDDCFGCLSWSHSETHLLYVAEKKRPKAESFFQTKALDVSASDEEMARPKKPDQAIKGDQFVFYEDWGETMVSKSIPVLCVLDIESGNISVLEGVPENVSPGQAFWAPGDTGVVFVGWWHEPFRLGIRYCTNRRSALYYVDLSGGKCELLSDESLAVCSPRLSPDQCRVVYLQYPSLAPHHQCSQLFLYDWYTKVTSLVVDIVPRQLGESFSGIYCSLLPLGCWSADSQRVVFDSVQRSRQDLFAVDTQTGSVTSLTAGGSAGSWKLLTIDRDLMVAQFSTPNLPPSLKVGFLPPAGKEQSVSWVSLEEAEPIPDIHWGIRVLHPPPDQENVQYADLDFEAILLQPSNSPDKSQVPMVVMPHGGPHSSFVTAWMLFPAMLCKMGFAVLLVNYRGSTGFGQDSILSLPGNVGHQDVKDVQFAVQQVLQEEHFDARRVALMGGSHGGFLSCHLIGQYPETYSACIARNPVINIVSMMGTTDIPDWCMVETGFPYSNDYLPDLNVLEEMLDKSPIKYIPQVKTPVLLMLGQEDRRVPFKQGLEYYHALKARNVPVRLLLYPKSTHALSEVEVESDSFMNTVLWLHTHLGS

[4] = target: T3, acetylcholinesterase (ACHE) (Mus musculus, UniProt P21836); assay: Competitive ABPP of ACHE recombinantly expressed in COS-7 cells; type: biochemical; conditions: 30 minutes at 37° C.
T3 construct: full-length cDNAs encoding mouse serine hydrolases were either transfected directly; host or cells: COS-7 cells
Experimental: ACHE was recombinantly expressed in COS-7 cells. Whole cell proteome was mixed 1:1 with soluble mouse brain proteome and treated with DMSO or AA74-1 in vitro at indicated concentrations for 30 minutes at 37° C., after which the samples were analyzed by competitive ABPP. Note that ACHE migrates as multiple bands by SDS-PAGE due to heterogeneous glycosylation. ACHE inhibition in vivo was not observed, as reflected by the equal signals for this enzyme in competitive ABPP results shown in FIG. 5b.
Briefly, full-length cDNAs encoding mouse serine hydrolases were either transfected directly (if available in a eukaryotic expression vector) or subcloned into pcDNA3 (Invitrogen). COS-7 or HEK-293 cells were grown to about 70% confluence in 10 cm dishes in complete medium (DMEM with L-glutamine, nonessential amino acids, sodium pyruvate, and FCS) at 37° C. and 5% CO2. The cells were transiently transfected by using the appropriate cDNA or empty vector control (“mock”) and the FUGENE® 6 (Roche Applied Science) transfection reagents following the manufacturers' protocols. After 48 hrs, the cells were washed twice with phosphate-buffered saline (PBS), and collected by scraping.

DAGLB [5] = target: T1, DAGLB; assay: ABPP-SILAC in Neuro2A cells; conditions: about 4 hours; 25 nM KT172, 50 nM KT109

T3 sequence (P21836 32-614): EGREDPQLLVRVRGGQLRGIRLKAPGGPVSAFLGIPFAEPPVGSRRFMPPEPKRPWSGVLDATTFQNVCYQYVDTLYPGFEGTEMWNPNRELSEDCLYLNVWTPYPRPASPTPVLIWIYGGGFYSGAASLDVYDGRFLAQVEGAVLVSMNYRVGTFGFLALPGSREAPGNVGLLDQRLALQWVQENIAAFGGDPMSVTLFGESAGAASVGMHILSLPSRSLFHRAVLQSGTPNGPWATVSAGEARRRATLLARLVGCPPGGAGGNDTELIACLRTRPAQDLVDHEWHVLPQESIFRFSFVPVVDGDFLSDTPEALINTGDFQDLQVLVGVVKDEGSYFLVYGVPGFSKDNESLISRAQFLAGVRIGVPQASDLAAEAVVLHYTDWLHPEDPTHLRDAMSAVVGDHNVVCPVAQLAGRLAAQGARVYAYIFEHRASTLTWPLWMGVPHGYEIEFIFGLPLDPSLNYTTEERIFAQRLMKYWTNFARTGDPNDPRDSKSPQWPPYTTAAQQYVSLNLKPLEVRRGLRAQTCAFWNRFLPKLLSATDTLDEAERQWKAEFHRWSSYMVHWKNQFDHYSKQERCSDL

Compound | off-target activity / selectivity against other serine hydrolases [1] | activity against DAGLB in Neuro2A cells (DAGLB [2]) | activity against DAGLB (DAGLB [3]) | IC50 (APEH) | ACHE inhibition in transfected cell proteome [4] | DAGLB activity blocked (DAGLB [5]) | IC50 (DAGLB [2])
COc1ccc(-c2ccc(-c3cn(C(=O)N4CCCCC4c4ccccc4)nn3)cc2)cc1 (stereo not drawn) [KT195] | completely inactivated ABHD6 | negligible activity against DAGLB | negligible activity against DAGLB at micromolar concentrations | – | – | – | –
CC(C)CC(O)(CC(C)C)c1cnn(C(=O)N2CCCC2)n1 [AA74-1] | – | – | – | 0.14 to 0.17 nM | not inhibited | – | –
O=C(N1CCCCC1Cc1ccccc1)n1cc(-c2ccc(-c3ccccc3)cc2)nn1 (stereo not drawn) [KT109] | improved selectivity against FAAH, MGLL, and ABHD11 | – | maintaining comparable potencies against DAGLB | – | – | approximately 90% | 14 nM
